Data: patent US20130023045A1, “INDUCED HEPATIC STEM CELL AND PROCESS FOR PRODUCTION THEREOF, AND APPLICATIONS OF THE CELL” (NATIONAL CANCER CENTER, priority 2010, published 2013)

System: induced human hepatic stem cells (AFB1-1, NGC1-2)
Experiment: Long-term passage culture of induced human hepatic stem cells
Type: cell-based
Settings: addition of 0.05-0.5 μM to the medium, passage culture for six months or longer
Text: Induced human hepatic stem cells (AFB1-1, NGC1-2) were subjected to passage culture for six months or longer. The exemplary medium used includes mTeSR1 (STEMCELL Technologies/VERITAS), a bFGF-supplemented medium for primate ES/iPS cells (ReproCELL), or bFGF-supplemented ReproStem (ReproCELL). In the case of using MEFs, a collagen- or gelatin-coated culture dish was used, and in the case of not using MEFs, a matrigel-coated culture dish was used.

In the case of Cc1cccc(-c2nn(C(=S)Nc3ccccc3)cc2-c2ccnc3ccccc23)n1 [A-83-01], the “proliferation rate and morphology” value is reported as “highly satisfactory proliferation rate and morphology” and the “self-replication of induced human hepatic stem cells” value is reported as “useful for self-replication of induced human hepatic stem cells”.
